Series [1] concerns clear cell aRCC. As to conditions: cited from earlier work; for median PFS (mPFS): previously untreated patients with clear cell aRCC, axitinib 5 mg BID, single agent.
The subject of series [2] is human PBMC. Description: Cytokine release, standard human PBMC in vitro test. Format: cell-based. An excerpt: The combination of avelumab plus anti-4-1BB antibody PF-05082566 and anti-OX40 antibody PF-04518600 has been evaluated for cytokine release using the standard human PBMC in vitro test. The cytokine release assay was completed for PF-05082566 alone and in combination with avelumab and PF-04518600.

On to `CNC(=O)c1cc(Oc2ccc(NC(=O)Nc3ccc(Cl)c(C(F)(F)F)c3)cc2)ccn1` [sorafenib], for which, in series [1], the “median PFS (mPFS)” value was 6.5 months.
For “PF-05082566: novel fully human IgG2 monoclonal antibody agonist of 4-1BB”, the cytokine release result in series [2] was “did not show a significant increase in cytokine release”.
For the compound `CNC(=O)c1ccccc1Sc1ccc2c(/C=C/c3ccccn3)n[nH]c2c1` [axitinib, N-methyl-2-[3-((E)-2-pyridin-2-yl-vinyl)-1H-indazol-6-ylsulfanyl]-benzamide], the “stratified hazard ratio (PFS)” value in series [1] (axitinib vs. sorafenib, 95% CI 0.56, 1.05) was 0.77. Further, in series [1], the “median PFS (mPFS)” value is 10.1 months.

Source of the values: patent US10869924B2, “PD-L1 antagonist combination treatments” (MERCK PATENT GMBH, priority 2015, dated 2020).
